Measured values reported in the supplement of paper PMC10307832.

Legend:
Assay in all cases: relative viability (nuclei count vs DMSO), 5 days (fraction); higher = more cells survive
[1] = compound: CC1=CC=C(C=C1)C(=O)CN2C3=C(CCCC3)SC2=N [Pifithrin_alpha] + COc1cc2c(Oc3ccc(NC(=O)C4(C(=O)Nc5ccc(F)cc5)CC4)cc3F)ccnc2cc1OCCCN1CCOCC1 [Foretinib] (partner 0.25 µM)
Outline: (§1)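 A single step with final 0.05% Triton X-100, 1% formaldehyde and 1 ug/ml Hoechst fixed the cells and stained nuclei 5 days after treatment. Lung cancer cell lines in 1536-well plates had been treated by pin tool the day after seeding with one drug alone or a fixed anchor-drug dose plus five library-drug doses (not always all listed) in √10 steps, and nuclei were counted on 4× images. Relative viability is the ratio of nuclei in treated wells to nuclei in vehicle wells, taken as the median of duplicate plates.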

Axitinib + Pemetrexed = compound: CNC(=O)c1ccccc1Sc1ccc2c(/C=C/c3ccccn3)n[nH]c2c1 [Axitinib] + Nc1nc2[nH]cc(CCc3ccc(C(=O)N[C@@H](CCC(=O)O)C(=O)O)cc3)c2c(=O)[nH]1 [Pemetrexed] (partner 0.2 µM)
Outline: as §1

Bemcentinib + Tozasertib = compound: Nc1nc(Nc2ccc3c(c2)CC[C@@H](N2CCCC2)CC3)nn1-c1cc2c(nn1)-c1ccccc1CCC2 [Bemcentinib] + Cc1cc(Nc2cc(N3CCN(C)CC3)nc(Sc3ccc(NC(=O)C4CC4)cc3)n2)n[nH]1 [Tozasertib] (partner 0.1 µM)
Outline: as §1

Bemcentinib + Decitabine = compound: Nc1nc(Nc2ccc3c(c2)CC[C@@H](N2CCCC2)CC3)nn1-c1cc2c(nn1)-c1ccccc1CCC2 [Bemcentinib] + Nc1ncn([C@H]2C[C@H](O)[C@@H](CO)O2)c(=O)n1 [Decitabine] (partner 2 µM)
Outline: as §1

Cell Line	relative viability ([1]; first compound 1 µM)	relative viability ([1]; first compound 3.162 µM)	relative viability ([1]; first compound 10 µM)	relative viability ([1]; first compound 31.62 µM)	relative viability ([1]; first compound 100 µM)	relative viability (Axitinib + Pemetrexed; first compound 0.005 µM)	relative viability (Axitinib + Pemetrexed; first compound 0.05 µM)	relative viability (Axitinib + Pemetrexed; first compound 0.1581 µM)	relative viability (Axitinib + Pemetrexed; first compound 0.5 µM)	relative viability (Bemcentinib + Tozasertib; first compound 0.04 µM)	relative viability (Bemcentinib + Tozasertib; first compound 0.1265 µM)	relative viability (Bemcentinib + Tozasertib; first compound 0.4 µM)	relative viability (Bemcentinib + Tozasertib; first compound 1.265 µM)	relative viability (Bemcentinib + Tozasertib; first compound 4 µM)	relative viability (Bemcentinib + Decitabine; first compound 0.04 µM)	relative viability (Bemcentinib + Decitabine; first compound 0.1265 µM)	relative viability (Bemcentinib + Decitabine; first compound 0.4 µM)	relative viability (Bemcentinib + Decitabine; first compound 1.265 µM)	relative viability (Bemcentinib + Decitabine; first compound 4 µM)	relative viability (Axitinib + Pemetrexed; first compound 0.01581 µM)
PC-3 [JPC-3]	1.05	0.991	0.927	0.833	0.931	0.963	1.32	1.06	1.16	0.852	0.927	0.897	0.941	0.863	0.773	0.897	0.804	0.822	0.804	
HCC-366	0.896	0.906	0.915		0.527	0.151	0.182	0.208	0.224	0.125	0.101	0.119	0.149	0.11	0.335	0.362	0.395	0.369	0.341	0.168
NCI-H2405	1.01	0.974	0.907	0.884	0.784	0.93	1.22	1.02	1.15	0.733	0.783	0.702	0.74	0.671	0.74	0.717	0.799	0.821	0.761	1.28
LU99A	0.772	0.866	0.861	0.398	0.776	0.196	0.182	0.175	0.204	0.263	0.31	0.248	0.264	0.258	0.918	0.882	0.899	0.975	0.987	0.203
LCLC-97TM1	0.954	1.08	0.934	0.496	0.909	0.203	0.176	0.186	0.181	0.214	0.214	0.22	0.246	0.186	0.248	0.212	0.217	0.207	0.252	0.188
A-427	0.877	1.02	1.08	0.863	1.01	1.11	1.01	0.954	1.14	0.192	0.192	0.197	0.213	0.201	0.569	0.525	0.502	0.57	0.559	1.1
EMC-BAC-2	0.912	0.932	0.968		0.818	0.476	0.456	0.461	0.518	0.264	0.281	0.285	0.305	0.301	0.955	1	1.12	0.997	1.01	0.464
NCI-H2228	1.04	0.867	0.758	0.711	0.793	0.335	0.307	0.374	0.341	0.182	0.249	0.216	0.251	0.271						0.306
IA-LM	1.07	0.975	0.469	0.445	0.604															
NCI-H838	1.06	0.933	0.991	0.8	0.762	0.243	0.247	0.237	0.25	0.281	0.268	0.264	0.262	0.291	0.483	0.484	0.497	0.47	0.517	0.25
COR-L 105	1.08	0.976	1.13	0.897	0.734	1.14	1.05	1.25	1.26	0.306	0.358	0.317	0.336	0.345	0.593	0.721	0.678	0.67	0.667	1.09
NCI-H358	0.773	0.777	0.645	0.467	0.541	0.166	0.182	0.173	0.181	0.11	0.129	0.106	0.0963	0.119	0.202	0.209	0.211	0.212	0.263	0.154
SK-MES-1	0.763	0.817	0.857	0.588	0.604	0.949	1.02	1.04	1.04	0.977	0.908	1.09	1.03	0.968	0.363	0.361	0.451	0.315	0.379	1.03
LCLC-103H	0.729	0.787	0.84	0.514	0.824	0.507	0.496	0.477	0.526	0.442	0.484	0.539	0.478	0.474	0.739	0.735	0.738	0.812	0.764	0.443
HARA		1.08	0.978		0.656	0.231	0.309	0.26	0.258	0.12	0.139	0.106	0.102	0.102	0.578	0.651	0.561	0.556	0.518	0.265
ABC-1	1.16	1.11	1.03	0.942	0.724					0.16	0.175	0.187	0.193	0.162	0.899	1.23	1.03	0.835	1.14	
NCI-H727	0.903	0.759	0.837		0.75					0.537	0.759	0.606	0.629	0.58	0.832	0.932	0.807	0.717	0.891	
NCI-H2009	1.19	1.26	1.18	0.829	1.05	0.997	1	1.1	1.05	0.741	0.785	0.765	0.569	0.677	0.404	0.353	0.492	0.399	0.434	1.06
NCI-H1944	0.816	0.713	0.732	0.47	0.677	0.6	0.707	0.657	0.652	0.258	0.261	0.255	0.251	0.242	0.413	0.39	0.443	0.443	0.417	0.583
SW 1573	1.01	0.891	0.835	0.753	0.709	0.841	0.928	0.77	0.816	0.18	0.166	0.174	0.129	0.194	0.427	0.55	0.595	0.544	0.468	0.777

Cell Line	relative viability ([1]; first compound 1 µM)	relative viability ([1]; first compound 3.162 µM)	relative viability ([1]; first compound 10 µM)	relative viability ([1]; first compound 31.62 µM)	relative viability ([1]; first compound 100 µM)	relative viability (Axitinib + Pemetrexed; first compound 0.005 µM)	relative viability (Axitinib + Pemetrexed; first compound 0.05 µM)	relative viability (Axitinib + Pemetrexed; first compound 0.1581 µM)	relative viability (Axitinib + Pemetrexed; first compound 0.5 µM)	relative viability (Bemcentinib + Tozasertib; first compound 0.04 µM)	relative viability (Bemcentinib + Tozasertib; first compound 0.1265 µM)	relative viability (Bemcentinib + Tozasertib; first compound 0.4 µM)	relative viability (Bemcentinib + Tozasertib; first compound 1.265 µM)	relative viability (Bemcentinib + Tozasertib; first compound 4 µM)	relative viability (Bemcentinib + Decitabine; first compound 0.04 µM)	relative viability (Bemcentinib + Decitabine; first compound 0.1265 µM)	relative viability (Bemcentinib + Decitabine; first compound 0.4 µM)	relative viability (Bemcentinib + Decitabine; first compound 1.265 µM)	relative viability (Bemcentinib + Decitabine; first compound 4 µM)	relative viability (Axitinib + Pemetrexed; first compound 0.01581 µM)
NCI-H1975	0.869	0.8	0.572	0.55	0.568	0.294	0.272	0.269	0.279	0.689	0.881	1.02	0.672	0.818	0.336	0.384	0.394	0.374	0.459	0.293
NCI-H661	0.996	1	0.981	0.94	0.904	0.885	0.902	0.942	0.956	0.357	0.344	0.338	0.34	0.339	0.558	0.654	0.547	0.57	0.557	0.916
UMC-11	0.965	1.13	1.19	1.04	1.43	0.774	0.77	0.867	0.81	0.214	0.192	0.2	0.198	0.204	0.576	0.565	0.521	0.628	0.58	0.81
NCI-H520	0.793	1.17	0.852	0.528	0.81	0.68	0.74	0.681	0.716	0.526	0.379	0.411	0.452	0.484	0.515	0.593	0.511	0.499	0.512	0.698
COR-L23	0.955	0.987	0.97		0.928	0.197	0.194	0.192	0.21	0.232	0.167	0.225	0.211	0.183	0.465	0.467	0.481	0.472	0.456	0.201
NCI-H2023	0.969		0.578		0.523	0.237	0.177	0.252	0.291	0.484	0.438	0.433	0.295	0.273	0.204	0.264	0.233	0.282	0.224	0.232
NCI-H1650		1.2	1.04	0.837	0.853	0.415	0.361	0.436	0.408	0.386	0.382	0.44	0.288	0.373	0.428	0.416	0.389	0.517	0.417	0.352
NCI-H1648						0.726	0.702	0.958	0.758	0.571	0.424	0.584	0.391	0.49	0.411	0.413	0.483	0.569	0.43	0.764
NCI-H1792						1.05	0.786	0.816	0.792						0.582	0.741	0.594	0.454	0.63	0.784
NCI-H1563	0.879	0.912	0.875	0.881	0.81	0.844	0.917	0.729	0.721											0.716
CAL-12T	0.923	1.18	1.06		0.898	1.43	1.28	1.22	1.24	0.302	0.368	0.307	0.286	0.329						1.35
A549	1.1	0.958	1.1	0.874	0.959										0.248	0.247	0.319	0.296	0.26	
NCI-H1623	0.825	0.811	0.759	0.628	0.669					0.427	0.438	0.455	0.461	0.442						
NCI-H1299	1.04	1.14	1.07	0.889	1.07															
HCC-44						0.625	0.626	0.624	0.676	0.913	1.46	0.872	0.956	0.888	0.954	0.986	0.947	0.978	0.957	0.631
NCI-H522						1.22	1.07	1.07	0.944	0.561	0.598	0.638	0.62	0.538	0.759	0.789	0.657	0.558	0.619	1.14
EBC-1	0.0836	0.0947	0.0856	0.0979	0.0988															
Calu-6	0.952	0.883	0.76	0.636	0.706															
NCI-H1703	0.285	0.336	0.374	0.34	0.266															
